This note sets out measurements from US20240269148A1, “Enhancement of Anti-Angiogenic Cancer Immunotherapy by Abortogenic Agents” (Therapeutic Solutions International, Inc., priority 2023, published 2024).

SMILES strings stand for the structures.

The subject of one assay is T cell. Nature of the assay: T cell reactivity in vitro after RU-486 administration (4T1 model). The assay is classed as cell-based. The note with it: administration of RU-486.
A further assay concerns 4T1 cells. Nature of the assay: 4T1 triple negative breast cancer model in BALB/c mice. Type of assay: in vivo. How it is done:
Female BALB/c mice were administered 4T1 cells at a concentration of 1 million cells per mouse. VALLOVAX™ at a concentration of 500,000 cells per mouse was administered alone, RU-486 was administered alone (25 μg/g dose) and in combination of RU-486 and VALLOVAX™.

For the compound `CC#C[C@]1(O)CC[C@H]2[C@@H]3CCC4=CC(=O)CCC4=C3[C@@H](c3ccc(N(C)C)cc3)C[C@@]21C` [RU-486, mifepristone], in the assay on T cell, the “T cell reactivity in vitro” value is reported as “increased”. Moreover, in the assay on 4T1 cells (administration of RU-486), the “Breast cancer induced myeloid suppressor cells” value is on record as “decreased” and the “Generation of CD8 cells capable of adoptively transferring immunity” value is “enhance”. For the same compound, the “Therapeutic activity of ValloVax” value with 4T1 cells (triple negative breast cancer 4T1 model) is given as “enhances”.
